The values below come from patent US20190062260A1, “ANTIMICROBIAL COMPOSITIONS, METHODS OF MAKING, AND METHODS OF USE” (priority 2017, published 2019).

The nature of this data set: Degradation of compound and release of acrolein, tracked via NMR spectroscopy. In kind it is physicochemical. The settings on record: 50 mM in deuterated water; for % acrolein generated pH 3, 3 days / % degraded pH 3, 3 days: pH 3 (adjusted with deuterium chloride); for % acrolein generated pH 3, 3 days / % degraded pH 3, 3 days / % acrolein generated pH 7, 7 days / % degraded pH 7, 7 days: 25 degrees Celsius. As for the experimental part: Degradation of Compound and Release of Acrolein
n=3, X as defined in the table. Measured at 25 degrees Celsius (room temperature), tracked via NMR spectroscopy. All compounds were prepared at 50 mM in deuterated water, pH adjusted with deuterium chloride.
n=3, X is Br. Measured at 25 or 70 degrees Celsius, tracked via NMR spectroscopy. All compounds were prepared at 50 mM in deuterated water at pH 7. Measurements were made after 4 hours.

SMILES strings stand for the structures.

Turning to `COCCOCCOCCOC(CCCl)OCCOCCOCCOC` [Compound 1], the “% acrolein generated pH 3, 3 days” value is on record as 1%; the “% degraded pH 3, 3 days” value amounted to 50%; the “% acrolein generated pH 7, 7 days” value amounted to 0%; the “% degraded pH 7, 7 days” value was found to be 0%.
In the case of `COCCOCCOCCOC(CCBr)OCCOCCOCCOC` [Compound 3], the “% acrolein generated pH 3, 3 days” value is listed as 8%; the “% degraded pH 3, 3 days” value was found to be 100%; the “% acrolein generated pH 7, 7 days” value amounted to 12%; the “% degraded pH 7, 7 days” value is listed as 95%. In addition, where the note is “25° C., pH 7, after 4 hours”, the “% acrolein generated 25° C.” value stood at 0% and the “% degraded 25° C.” value was 0%. For the setting “70° C., pH 7, after 4 hours”, the “% acrolein generated 70° C.” value stood at 40% and the “% degraded 70° C.” value came out at 85%.
